From US4632990A, “Ergoline carboxamides” (Farmitalia Carlo Erba S.p.A., priority 1982, dated 1986)
Where two headings read alike, the source gives them in different places.

System: egg-nidation in rats
Assay: Nidation inhibition in rats (egg-nidation inhibitory action, indirect measure of anti-prolactin activity)
Assay type: in vivo, Sprague Dowley rats
Conditions: Rattus norvegicus, po, read-out: Nidation inhibition in rats, ED50
Description: Pregnant Sprague Dowley rats weighing 200-250 g were used. The compounds to be tested, dissolved in diluted mineral acids, were administered orally to groups from six to eight rats on day 5 of pregnancy. The animals were sacrificed on day 14 and the uteri were examined. The absence of implantation sites was taken as the criterion of anti-prolactin activity. Several doses were tested for the ED50 evaluation. As reference standard Bromocryptine was used.

[1] = pregnant rats, given on day 5 of pregnancy, absence of implantation sites on day 14

CC(C)C[C@H]1C(=O)N2CCC[C@H]2[C@]2(O)O[C@](NC(=O)[C@@H]3C=C4c5cccc6[nH]c(Br)c(c56)C[C@H]4N(C)C3)(C(C)C)C(=O)N12 [2-bromo-α-ergocryptine, reference compound]
ED50: 5.7 mg/kg

Cc1cc(NC(=O)[C@@H]2C[C@@H]3c4cccc5[nH]cc(c45)C[C@H]3N(C)C2)nc(C)n1 [Example 1, N-(2', 6'-dimethyl-4'-pyrimidyl)-6-methylergoline-8β-carboxamide]
ED50 [1]: 1.8 mg/kg

Cc1cc(NC(=O)[C@@H]2C[C@@H]3c4cccc5[nH]c(C)c(c45)C[C@H]3N(C)C2)nc(C)n1 [Example 4, N-(2',6'-dimethyl-4'-pyrimidyl)-2,6-dimethylergoline-8β-carboxamide]
ED50 [1]: 0.5 to 1 mg/kg

CCCN1C[C@H](C(=O)Nc2cc(C)nc(C)n2)C[C@@H]2c3cccc4[nH]cc(c34)C[C@H]21 [Example 5, N-(2',6'-dimethyl-4'-pyrimidyl)-6-propylergoline-8β-carboxamide]
ED50 [1]: 0.3 mg/kg
